Where only a bound is given, the exact number is not on record here.

For the test, the target named is HCV RNA-dependent RNA polymerase (NS5B) (Hepatitis C virus genotype 1b (isolate BK) (HCV), UniProt P26663). In words: RNA-Dependent RNA HCV NS5B (polymerase) Assay and IC50 Determination. The class given is biochemical. The note with it: purified HCV NS5B polymerase, polyA:U16 substrate, 32P-UTP incorporation; read-out: IC50. The procedure, abridged: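 Purified NS5B was incubated with 0.5 uM polyA:U16, 10 μM UTP plus ^32P-UTP in 50 mM Hepes-KOH pH 7.5, 5 mM MgCl2, 5 mM DTT, 2% glycerol and 0.01% Triton X-100. Inhibitor reactions ran 60 min at 37° C, and radiolabelled RNA product was quantified after filter capture. IC50 values were obtained from concentration series.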
HCV RNA-dependent RNA polymerase (NS5B), sequence (P26663 2420-3010): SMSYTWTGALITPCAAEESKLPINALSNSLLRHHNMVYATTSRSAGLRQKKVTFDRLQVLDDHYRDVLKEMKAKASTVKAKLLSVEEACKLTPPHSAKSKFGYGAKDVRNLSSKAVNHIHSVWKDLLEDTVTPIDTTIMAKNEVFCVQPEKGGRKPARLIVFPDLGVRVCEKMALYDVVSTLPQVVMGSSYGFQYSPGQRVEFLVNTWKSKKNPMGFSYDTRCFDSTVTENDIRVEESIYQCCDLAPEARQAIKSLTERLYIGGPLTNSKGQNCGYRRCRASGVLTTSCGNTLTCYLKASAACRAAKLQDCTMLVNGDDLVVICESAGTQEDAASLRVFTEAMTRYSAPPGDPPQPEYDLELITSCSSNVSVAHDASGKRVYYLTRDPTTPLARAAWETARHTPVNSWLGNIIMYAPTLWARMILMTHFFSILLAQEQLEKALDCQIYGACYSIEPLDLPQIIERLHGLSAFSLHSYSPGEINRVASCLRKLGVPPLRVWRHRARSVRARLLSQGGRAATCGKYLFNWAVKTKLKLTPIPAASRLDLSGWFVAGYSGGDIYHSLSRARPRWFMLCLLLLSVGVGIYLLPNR
Consider `CCOC(=O)/C(O)=C/C(=O)c1ccc(COCCOCCOCCOCCN(c2cc3oc(-c4ccc(F)cc4)c(C(=O)NC)c3cc2C2CC2)S(C)(=O)=O)cc1` [Compound 02-9H, 4-[4-(2-{2-[2-(2-{[5-Cyclopropyl-2-(4-fluoro-phenyl)-3-methylcarbamoyl-benzofuran-6-yl]-methanesulfonyl-amino}-ethoxy)-ethoxy]-ethoxy}-ethoxymethyl)-phenyl]-2-hydroxy-4-oxo-but-2-enoic Acid Ethyl Ester], for which the half-inhibitory concentration (IC50) is greater than 1000 nM.
Next, `CNC(=O)c1c(-c2ccc(F)cc2)oc2cc(N(CCOCCOCCOCCC(=O)O)S(C)(=O)=O)c(C3CC3)cc12` [Compound 24-4, 3-{2-[2-(2-{[5-Cyclopropyl-2-(4-fluoro-phenyl)-3-methylcarbamoyl-benzofuran-6-yl]-methanesulfonyl-amino}-ethoxy)-ethoxy]-ethoxy}-propionic Acid]: 100 to 1000 nM; `CNC(=O)c1c(-c2ccc(F)cc2)oc2cc(N(CCOCCOCc3ccc(Cl)nc3)S(C)(=O)=O)c(C3CC3)cc12` [Compound 19-8B]: less than 100 nM.
Regarding `CNC(=O)c1c(-c2ccc(F)cc2)oc2cc(N(CCCCCOCCCCC(=O)OC(C)(C)C)S(C)(=O)=O)c(C3CC3)cc12` [Compound 28-7A, 5-(5-{[5-Cyclopropyl-2-(4-fluoro-phenyl)-3-methylcarbamoyl-benzofuran-6-yl]-methanesulfonyl-amino}-pentyloxy)-pentanoic Acid Tert-butyl Ester], the IC50 was greater than 1000 nM.
Regarding `CNC(=O)c1c(-c2ccc(F)cc2)oc2cc(N(CCCCCOCCCCC(=O)O)S(C)(=O)=O)c(C3CC3)cc12` [Compound 28-8A, 5-((5-(N-(5-cyclopropyl-2-(4-fluorophenyl)-3-(methylcarbamoyl)benzofuran-6-yl)-methylsulfonamido)-pentyl)-oxy)-pentanoic Acid], the IC50 is less than 100 nM.
Turning to `CNC(=O)c1c(-c2ccc(F)cc2)oc2cc(N(CCOCCOCc3ccc(F)c(C(=O)NO)c3)S(C)(=O)=O)c(C3CC3)cc12` [Compound 17A-8B, 5-Cyclopropyl-6-({2-[2-(4-fluoro-3-hydroxycarbamoyl-benzyloxy)-ethoxy]-ethyl}-methanesulfonyl-amino)-2-(4-fluoro-phenyl)-benzofuran-3-carboxylic Acid Methylamide], the IC50 was greater than 1000 nM.
Under `CNC(=O)c1c(-c2ccc(F)cc2)oc2cc(N(CCOCCOCCc3ccccc3C(=O)OC)S(C)(=O)=O)c(C3CC3)cc12` [Compound 11-5A, 2-{2-[2-(2-{[5-Cyclopropyl-2-(4-fluoro-phenyl)-3-methylcarbamoyl-benzofuran-6-yl]-methanesulfonyl-amino}-ethoxy)-ethoxy]-ethyl}-benzoic Acid Methyl Ester] stands 100 to 1000 nM; under `CNC(=O)c1c(-c2ccc(F)cc2)oc2cc(N(CCOCCOCCCCc3cccc(C(=O)CC(=O)C(=O)O)c3)S(C)(=O)=O)c(C3CC3)cc12` [Compound 30-12, 4-(3-{4-[2-(2-{[5-Cyclopropyl-2-(4-fluoro-phenyl)-3-methylcarbamoyl-benzofuran-6-yl]-methanesulfonyl-amino}-ethoxy)-ethoxy]-butyl}-phenyl)-2,4-dioxo-butyric acid], greater than 1000 nM; under `CNC(=O)c1c(-c2ccc(F)cc2)oc2cc(N(CCCOCCOCc3cccc(C(=O)/C=C(\O)C(=O)O)c3)S(C)(=O)=O)c(C3CC3)cc12` [Compound 03-8A, 4-{3-[2-(3-{[5-Cyclopropyl-2-(4-fluoro-phenyl)-3-methylcarbamoyl-benzofuran-6-yl]-methanesulfonyl-amino}-propoxy)-ethoxymethyl]-phenyl}-2-hydroxy-4-oxo-but-2-enoic Acid], 100 to 1000 nM.
Next, `CNC(=O)c1c(-c2ccc(F)cc2)oc2cc(N(CCOCCOCc3ccc(C(=O)OCC(N)=O)cc3)S(C)(=O)=O)c(C3CC3)cc12` [Compound 06-8B5, 4-[2-(2-{[5-Cyclopropyl-2-(4-fluoro-phenyl)-3-methylcarbamoyl-benzofuran-6-yl]-methanesulfonyl-amino}-ethoxy)-ethoxymethyl]-benzoic Acid Carbamoylmethyl Ester]: 100 to 1000 nM.
Next, `CNC(=O)c1c(-c2ccc(F)cc2)oc2cc(N(CCOCCOCCOc3cccc(C(=O)O)c3)S(C)(=O)=O)c(C3CC3)cc12` [Compound 14-7B, 3-{2-[2-(2-{[5-Cyclopropyl-2-(4-fluoro-phenyl)-3-methylcarbamoyl-benzofuran-6-yl]-methanesulfonyl-amino}-ethoxy)-ethoxy]-ethoxy}-benzoic Acid]: 100 to 1000 nM; `CCOC(=O)c1ccc(COCCOCCN(c2cc3oc(-c4ccc(F)cc4)c(C(=O)NC)c3cc2C2CC2)S(C)(=O)=O)c2ccccc12` [Compound 20-7, 4-[2-(2-{[5-Cyclopropyl-2-(4-fluoro-phenyl)-3-methylcarbamoyl-benzofuran-6-yl]-methanesulfonyl-amino}-ethoxy)-ethoxymethyl]-naphthalene-1-carboxylic Acid Ethyl Ester]: 100 to 1000 nM; `CNC(=O)c1c(-c2ccc(F)cc2)oc2cc(N(CCOCCOCCOCCCc3cccc(C(=O)CC(=O)C(=O)O)c3)S(C)(=O)=O)c(C3CC3)cc12` [Compound 30-10, 4-[3-(3-{2-[2-(2-{[5-Cyclopropyl-2-(4-fluoro-phenyl)-3-methylcarbamoyl-benzofuran-6-yl]-methanesulfonyl-amino}-ethoxy)-ethoxy]-ethoxy}-propyl)-phenyl]-2,4-dioxo-butyric acid]: greater than 1000 nM.
Take `CCOC(=O)c1ccc(OCCCCCCN(c2cc3oc(-c4ccc(F)cc4)c(C(=O)NC)c3cc2C2CC2)S(C)(=O)=O)cc1` [Compound 15-7, 4-(6-{[5-Cyclopropyl-2-(4-fluoro-phenyl)-3-methylcarbamoyl-benzofuran-6-yl]-methanesulfonyl-amino}-hexyloxy)-benzoic Acid Ethyl Ester]: the IC50 lay within 100 to 1000 nM.
Next, `CCCCCOC(=O)c1ccc(COCCOCCN(c2cc3oc(-c4ccc(F)cc4)c(C(=O)NC)c3cc2C2CC2)S(C)(=O)=O)cc1` [Compound 06-8B4, 4-[2-(2-{[5-Cyclopropyl-2-(4-fluoro-phenyl)-3-methylcarbamoyl-benzofuran-6-yl]-methanesulfonyl-amino}-ethoxy)-ethoxymethyl]-benzoic Acid Pentyl Ester]: 100 to 1000 nM.
Under `CNC(=O)c1c(-c2ccc(F)cc2)oc2cc(N(CC(=O)NCC(=O)NCCCC(C)C(=O)OC)S(C)(=O)=O)c(C3CC3)cc12` (stereo not drawn) [Compound 10-3B, 5-[2-(2-{[5-Cyclopropyl-2-(4-fluoro-phenyl)-3-methylcarbamoyl-benzofuran-6-yl]-methanesulfonyl-amino}-acetylamino)-acetylamino]-2-methyl-pentanoic Acid Methyl Ester] stands greater than 1000 nM; under `CNC(=O)c1c(-c2ccc(F)cc2)oc2cc(N(CCOCCOCCc3ccc(C(=O)OC)cc3)S(C)(=O)=O)c(C3CC3)cc12` [Compound 11-5C, 4-{2-[2-(2-{[5-Cyclopropyl-2-(4-fluoro-phenyl)-3-methylcarbamoyl-benzofuran-6-yl]-methanesulfonyl-amino}-ethoxy)-ethoxy]-ethyl}-benzoic Acid Methyl Ester], greater than 1000 nM; under `CCOC(=O)c1ccccc1OCCOCCOCCN(c1cc2oc(-c3ccc(F)cc3)c(C(=O)NC)c2cc1C1CC1)S(C)(=O)=O` [Compound 14-6A, 2-{2-[2-(2-{[5-Cyclopropyl-2-(4-fluoro-phenyl)-3-methylcarbamoyl-benzofuran-6-yl]-methanesulfonyl-amino}-ethoxy)-ethoxy]-ethoxy}-benzoic Acid Ethyl Ester], 100 to 1000 nM.
Under `CNC(=O)c1c(-c2ccc(F)cc2)oc2cc(N(CCNC(=O)CNC(=O)CCCC(=O)O)S(C)(=O)=O)c(C3CC3)cc12` [Compound 07-7, 4-{[(2-{[5-Cyclopropyl-2-(4-fluoro-phenyl)-3-methylcarbamoyl-benzofuran-6-yl]-methanesulfonyl-amino}-ethylcarbamoyl)-methyl]-carbamoyl}-butyric Acid] stands greater than 1000 nM; under `CNC(=O)c1c(-c2ccc(F)cc2)oc2cc(N(CCOCCOCCOCC(N)=O)S(C)(=O)=O)c(C3CC3)cc12` [Compound 23-7A, 6-({2-[2-(2-Carbamoylmethoxy-ethoxy)-ethoxy]-ethyl}-methanesulfonyl-amino)-5-cyclopropyl-2-(4-fluoro-phenyl)-benzofuran-3-carboxylic Acid Methylamide], 100 to 1000 nM; under `CNC(=O)c1c(-c2ccc(F)cc2)oc2cc(N(CCOCCOCCOCCN)S(C)(=O)=O)c(C3CC3)cc12` [Compound 04-10, 6-(N-(2-(2-(2-(2-Aminoethoxy)-ethoxy)-ethoxy)-ethyl)-methylsulfonamido)-5-cyclopropyl-2-(4-fluorophenyl)-N-methylbenzofuran-3-carboxamide], greater than 1000 nM.
In the case of `CNC(=O)c1c(-c2ccc(F)cc2)oc2cc(N(CCOCCOCCOCCOCc3cccc(C(=O)/C=C(\O)C(=O)O)c3)S(C)(=O)=O)c(C3CC3)cc12` [Compound 02-10C, 4-[3-(2-{2-[2-(2-{[5-Cyclopropyl-2-(4-fluoro-phenyl)-3-methylcarbamoyl-benzofuran-6-yl]-methanesulfonyl-amino}-ethoxy)-ethoxy]-ethoxy}-ethoxymethyl)-phenyl]-2-hydroxy-4-oxo-but-2-enoic Acid], the IC50 was 100 to 1000 nM.
Next, `CNC(=O)c1c(-c2ccc(F)cc2)oc2cc(N(CCCCCCOc3ccc(C(=O)O)cc3)S(C)(=O)=O)c(C3CC3)cc12` [Compound 15-8, 4-(6-{[5-Cyclopropyl-2-(4-fluoro-phenyl)-3-methylcarbamoyl-benzofuran-6-yl]-methanesulfonyl-amino}-hexyloxy)-benzoic Acid]: 100 to 1000 nM; `CNC(=O)c1c(-c2ccc(F)cc2)oc2cc(N(CCOCCOCCOC(C(=O)NO)c3ccccc3)S(C)(=O)=O)c(C3CC3)cc12` (stereo not drawn) [Compound 25-6, 5-Cyclopropyl-2-(4-fluoro-phenyl)-6-[(2-{2-[2-(hydroxycarbamoyl-phenyl-methoxy)-ethoxy]-ethoxy}-ethyl)-methanesulfonyl-amino]-benzofuran-3-carboxylic Acid Methylamide]: greater than 1000 nM.

The term IC50 denotes the concentration needed to halve the response being measured.

The record behind these values is US10947210B2 (priority 2015, dated 2021).
